pIC50: −log10 of the molar value. Where two headings read alike, the source gives them in different places.
Molecular target: T1, full-length beta-Catenin (Uniprot ID P35222) (Homo sapiens, UniProt P35222)
T1 construct: 10 nM full-length beta-Catenin (Uniprot ID P35222)
T1 sequence (P35222 1-781): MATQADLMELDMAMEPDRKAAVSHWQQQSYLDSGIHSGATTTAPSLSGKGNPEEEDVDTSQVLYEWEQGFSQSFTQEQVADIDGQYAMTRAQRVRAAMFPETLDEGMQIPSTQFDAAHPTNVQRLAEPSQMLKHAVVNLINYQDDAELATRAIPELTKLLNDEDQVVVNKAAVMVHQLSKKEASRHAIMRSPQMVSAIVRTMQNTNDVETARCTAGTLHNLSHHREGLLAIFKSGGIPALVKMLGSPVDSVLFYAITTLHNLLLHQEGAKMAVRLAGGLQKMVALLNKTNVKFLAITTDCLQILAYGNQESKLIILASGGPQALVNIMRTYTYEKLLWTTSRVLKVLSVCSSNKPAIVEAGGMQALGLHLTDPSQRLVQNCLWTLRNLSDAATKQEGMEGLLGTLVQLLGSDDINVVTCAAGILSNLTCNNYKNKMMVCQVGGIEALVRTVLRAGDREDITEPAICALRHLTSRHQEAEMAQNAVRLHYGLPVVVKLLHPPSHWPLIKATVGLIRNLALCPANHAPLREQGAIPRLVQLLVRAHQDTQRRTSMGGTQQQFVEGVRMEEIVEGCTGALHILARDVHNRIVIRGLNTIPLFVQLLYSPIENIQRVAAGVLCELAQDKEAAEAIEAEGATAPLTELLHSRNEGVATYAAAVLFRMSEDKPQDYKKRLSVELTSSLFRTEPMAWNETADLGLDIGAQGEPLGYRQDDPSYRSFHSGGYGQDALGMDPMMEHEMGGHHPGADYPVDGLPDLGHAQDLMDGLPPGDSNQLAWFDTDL
Test: Fluorescence polarization IC50 (beta-catenin / 5FAM-TCF4 10-53 competition)
Assay type: binding

[1] = fluorescence polarization, beta-catenin, read-out: FP EC50
[2] = fluorescence polarization, read-out: beta-Catenin FP IC50
[3] = beta-Catenin FP IC50, fluorescence polarization

Compound | pIC50 [1] | pIC50 [2] | pIC50 [3]
CCCC[C@@H]1NC(=O)[C@H](CC(=O)O)NC(=O)[C@]2(CC=CCCCC3(CCCC=CCCCOC(=O)N4CC[C@@](C(=O)N[C@@H](Cc5ccccc5Cl)C(=O)N[C@@H](Cc5csc6ccccc56)C(=O)N[C@@H](CC(C)C)C(N)=O)(C4)NC(=O)[C@H](CC(C)C)NC(=O)[C@H](Cc4ccccc4)NC(=O)[C@H](C)NC(=O)[C@H](C)NC(=O)[C@H](CC(=O)O)NC(=O)[C@H](CC(=O)O)NC3=O)NC1=O)CCCN2C(C)=O (stereo partly drawn) [I-1420, Ac-PL3-Asp-nLeu-B5-Asp-Asp-Ala-Ala-Phe-Leu-PyrS2-2C1F-BztA-Leu-NH2] | 6.91 | 6.91 | –
CC(=O)N1CCC[C@]12CC=CCCCC1(CCCC=CCCCOC(=O)N3CC[C@@](C(=O)N[C@@H](Cc4ccccc4Cl)C(=O)N[C@@H](Cc4csc5ccccc45)C(=O)N[C@@H](CC(C)C)C(N)=O)(C3)NC(=O)[C@H](CC(C)C)NC(=O)[C@H](Cc3ccccc3)NC(=O)[C@H](C)NC(=O)[C@H](C)NC(=O)[C@H](CC(=O)O)NC(=O)[C@H](CC(=O)O)NC1=O)NC(=O)[C@H](CC(N)=O)NC(=O)[C@H](CC(=O)O)NC2=O (stereo partly drawn) [I-1422, Ac-PL3-Asp-Asn-B5-Asp-Asp-Ala-Ala-Phe-Leu-PyrS2-2C1F-BztA-Leu-NH2] | – | – | 6.41
CC(=O)N1CCC[C@]12CC=CCCCC1(CCCC=CCCCOC(=O)N3CC[C@@](C(=O)N[C@@H](Cc4ccccc4Cl)C(=O)N[C@@H](Cc4csc5ccccc45)C(=O)N[C@@H](CC(C)C)C(N)=O)(C3)NC(=O)[C@H](CC(C)C)NC(=O)[C@H](Cc3ccccc3)NC(=O)[C@H](C)NC(=O)[C@H](C)NC(=O)[C@H](CC(=O)O)NC(=O)[C@H](CC(=O)O)NC1=O)NC(=O)[C@H](CO)NC(=O)[C@H](CC(=O)O)NC2=O (stereo partly drawn) [I-1423, Ac-PL3-Asp-Ser-B5-Asp-Asp-Ala-Ala-Phe-Leu-PyrS2-2C1F-BztA-Leu-NH2] | – | – | 6.41
CC(=O)N1CCC[C@]12CC=CCCCC1(CCCC=CCCCOC(=O)N3CC[C@@](C(=O)N[C@@H](Cc4ccccc4Cl)C(=O)N[C@@H](Cc4csc5ccccc45)C(=O)N[C@@H](CC(C)C)C(N)=O)(C3)NC(=O)[C@H](CC(C)C)NC(=O)[C@H](Cc3ccccc3)NC(=O)[C@H](C)NC(=O)[C@H](C)NC(=O)[C@H](CC(=O)O)NC(=O)[C@H](CC(=O)O)NC1=O)NC(=O)[C@H]([C@@H](C)O)NC(=O)[C@H](CC(=O)O)NC2=O (stereo partly drawn) [I-1424, Ac-PL3-Asp-Thr-B5-Asp-Asp-Ala-Ala-Phe-Leu-PyrS2-2C1F-BztA-Leu-NH2] | – | – | 6.63
CC(=O)N1CCC[C@]12CC=CCCCC1(CCCC=CCCCOC(=O)N3CC[C@@](C(=O)N[C@@H](Cc4ccsc4)C(=O)N[C@@H](Cc4cccc(F)c4F)C(=O)N[C@@H](CCC(N)=O)C(N)=O)(C3)NC(=O)[C@H](CC(C)C)NC(=O)[C@H](Cc3ccccc3)NC(=O)[C@H](C)NC(=O)[C@H](C)NC(=O)[C@H](CC(=O)O)NC(=O)[C@H](CC(=O)O)NC1=O)NC(=O)[C@H](CC(C)(C)C)NC(=O)[C@H](CC(=O)O)NC2=O (stereo partly drawn) [I-1425, Ac-PL3-Asp-Npg-B5-Asp-Asp-Ala-Ala-Phe-Leu-PyrS2-3Thi-23FF-Gln-NH2] | – | 6.62 | –
CC(=O)N1CCC[C@]12CC=CCCCC1(CCCC=CCCCOC(=O)N3CC[C@@](C(=O)N[C@@H](Cc4ccsc4)C(=O)N[C@@H](Cc4cccc(F)c4F)C(=O)N[C@@H](CO)C(N)=O)(C3)NC(=O)[C@H](CC(C)C)NC(=O)[C@H](Cc3ccccc3)NC(=O)[C@H](C)NC(=O)[C@H](C)NC(=O)[C@H](CC(=O)O)NC(=O)[C@H](CC(=O)O)NC1=O)NC(=O)[C@H](CC(C)(C)C)NC(=O)[C@H](CC(=O)O)NC2=O (stereo partly drawn) [I-1426, Ac-PL3-Asp-Npg-B5-Asp-Asp-Ala-Ala-Phe-Leu-PyrS2-3Thi-23FF-Ser-NH2] | – | 6.69 | –
CC(=O)N1CCC[C@]12CC=CCCCC1(CCCC=CCCCOC(=O)N3CC[C@@](C(=O)N[C@@H](Cc4ccsc4)C(=O)N[C@@H](Cc4ccc(F)c(F)c4)C(=O)N[C@@H](CCC(N)=O)C(N)=O)(C3)NC(=O)[C@H](CC(C)C)NC(=O)[C@H](Cc3ccccc3)NC(=O)[C@H](C)NC(=O)[C@H](C)NC(=O)[C@H](CC(=O)O)NC(=O)[C@H](CC(=O)O)NC1=O)NC(=O)[C@H](CC(C)(C)C)NC(=O)[C@H](CC(=O)O)NC2=O (stereo partly drawn) [I-1427, Ac-PL3-Asp-Npg-B5-Asp-Asp-Ala-Ala-Phe-Leu-PyrS2-3Thi-34FF-Gln-NH2] | – | 7.48 | –
CC(=O)N1CCC[C@]12CC=CCCCC1(CCCC=CCCCOC(=O)N3CC[C@@](C(=O)N[C@@H](Cc4ccsc4)C(=O)N[C@@H](Cc4cn(C)c5ccccc45)C(=O)N[C@@H](CO)C(N)=O)(C3)NC(=O)[C@H](CC(C)C)NC(=O)[C@H](Cc3ccccc3)NC(=O)[C@H](C)NC(=O)[C@H](C)NC(=O)[C@H](CC(=O)O)NC(=O)[C@H](CC(=O)O)NC1=O)NC(=O)[C@H](CC(C)(C)C)NC(=O)[C@H](CC(=O)O)NC2=O (stereo partly drawn) [I-1434, Ac-PL3-Asp-Npg-B5-Asp-Asp-Ala-Ala-Phe-Leu-PyrS2-3Thi-1MeW-Ser-NH2] | – | 7.08 | –
CC(=O)N1CCC[C@]12CC=CCCCC1(CCCC=CCCCOC(=O)N3CC[C@@](C(=O)N[C@@H](Cc4ccsc4)C(=O)N[C@@H](Cc4c[nH]c5cc(Cl)ccc45)C(=O)N[C@@H](CO)C(N)=O)(C3)NC(=O)[C@H](CC(C)C)NC(=O)[C@H](Cc3ccccc3)NC(=O)[C@H](C)NC(=O)[C@H](C)NC(=O)[C@H](CC(=O)O)NC(=O)[C@H](CC(=O)O)NC1=O)NC(=O)[C@H](CC(C)(C)C)NC(=O)[C@H](CC(=O)O)NC2=O (stereo partly drawn) [I-1436, Ac-PL3-Asp-Npg-B5-Asp-Asp-Ala-Ala-Phe-Leu-PyrS2-3Thi-6C1W-Ser-NH2] | – | 6.92 | –
CC(=O)N1CCC[C@]12CC=CCCCC1(CCCC=CCCCOC(=O)N3CC[C@@](C(=O)N[C@@H](Cc4ccsc4)C(=O)N[C@@H](Cc4csc5ccccc45)C(=O)N[C@@H](CCC(N)=O)C(N)=O)(C3)NC(=O)[C@H](CC(C)C)NC(=O)[C@H](Cc3ccccc3)NC(=O)[C@H](C)NC(=O)[C@H](C)NC(=O)[C@H](Cc3ccccc3)NC(=O)[C@H](CC(=O)O)NC1=O)NC(=O)[C@H](CC(C)(C)C)NC(=O)[C@H](CC(=O)O)NC2=O (stereo partly drawn) [I-1441, Ac-PL3-Asp-Npg-B5-Asp-Phe-Ala-Ala-Phe-Leu-PyrS2-3Thi-BztA-Gln-NH2] | – | 6.49 | –

Further lines, with some results ahead:

pIC50 [1] | pIC50 [2] | Compound | pIC50 [3]
6.87 | 6.87 | CCCC[C@@H]1NC(=O)[C@H](CC(=O)O)NC(=O)[C@]2(CC=CCCCC3(CCCC=CCCCOC(=O)N4CC[C@@](C(=O)N[C@@H](Cc5ccccc5Cl)C(=O)N[C@@H](Cc5csc6ccccc56)C(=O)N[C@@H](CC(C)C)C(N)=O)(C4)NC(=O)[C@H](CC(C)C)NC(=O)[C@H](Cc4ccccc4)NC(=O)[C@H](C)NC(=O)[C@H](C)NC(=O)[C@H](CC(=O)O)NC(=O)[C@H](CC(=O)O)NC3=O)NC1=O)CCCN2C(C)=O (stereo partly drawn) [I-1421, Ac-PL3-Asp-nLeu-B5-Asp-Asp-Ala-Ala-Phe-Leu-PyrS2-2C1F-BztA-Leu-NH2] | –
– | 7.39 | CC(=O)N1CCC[C@]12CC=CCCCC1(CCCC=CCCCOC(=O)N3CC[C@@](C(=O)N[C@@H](Cc4ccsc4)C(=O)N[C@@H](Cc4ccc(F)c(F)c4)C(=O)N[C@@H](CO)C(N)=O)(C3)NC(=O)[C@H](CC(C)C)NC(=O)[C@H](Cc3ccccc3)NC(=O)[C@H](C)NC(=O)[C@H](C)NC(=O)[C@H](CC(=O)O)NC(=O)[C@H](CC(=O)O)NC1=O)NC(=O)[C@H](CC(C)(C)C)NC(=O)[C@H](CC(=O)O)NC2=O (stereo partly drawn) [I-1428, Ac-PL3-Asp-Npg-B5-Asp-Asp-Ala-Ala-Phe-Leu-PyrS2-3Thi-34FF-Ser-NH2] | –
– | 7.15 | CC(=O)N1CCC[C@]12CC=CCCCC1(CCCC=CCCCOC(=O)N3CC[C@@](C(=O)N[C@@H](Cc4ccsc4)C(=O)N[C@@H](Cc4cn(C)c5ccccc45)C(=O)N[C@@H](CCC(N)=O)C(N)=O)(C3)NC(=O)[C@H](CC(C)C)NC(=O)[C@H](Cc3ccccc3)NC(=O)[C@H](C)NC(=O)[C@H](C)NC(=O)[C@H](CC(=O)O)NC(=O)[C@H](CC(=O)O)NC1=O)NC(=O)[C@H](CC(C)(C)C)NC(=O)[C@H](CC(=O)O)NC2=O (stereo partly drawn) [I-1433, Ac-PL3-Asp-Npg-B5-Asp-Asp-Ala-Ala-Phe-Leu-PyrS2-3Thi-1MeW-Gln-NH2] | –
– | 7.05 | CC(=O)N1CCC[C@]12CC=CCCCC1(CCCC=CCCCOC(=O)N3CC[C@@](C(=O)N[C@@H](Cc4ccsc4)C(=O)N[C@@H](Cc4c[nH]c5cc(Cl)ccc45)C(=O)N[C@@H](CCC(N)=O)C(N)=O)(C3)NC(=O)[C@H](CC(C)C)NC(=O)[C@H](Cc3ccccc3)NC(=O)[C@H](C)NC(=O)[C@H](C)NC(=O)[C@H](CC(=O)O)NC(=O)[C@H](CC(=O)O)NC1=O)NC(=O)[C@H](CC(C)(C)C)NC(=O)[C@H](CC(=O)O)NC2=O (stereo partly drawn) [I-1435, Ac-PL3-Asp-Npg-B5-Asp-Asp-Ala-Ala-Phe-Leu-PyrS2-3Thi-6C1W-Gln-NH2] | –
– | 5.18 | CC(=O)N1CCC[C@]12CC=CCCCC1(CCCC=CCCCOC(=O)N3CC[C@@](C(=O)N[C@@H](Cc4ccsc4)C(=O)N[C@@H](Cc4csc5ccccc45)C(=O)N[C@@H](CCC(N)=O)C(N)=O)(C3)NC(=O)[C@H](CC(C)C)NC(=O)[C@H](Cc3ccccc3)NC(=O)[C@H](C)NC(=O)[C@H](C)NC(=O)[C@H](CC(C)C)NC(=O)[C@H](CC(=O)O)NC1=O)NC(=O)[C@H](CC(C)(C)C)NC(=O)[C@H](CC(=O)O)NC2=O (stereo partly drawn) [I-1444, Ac-PL3-Asp-Npg-B5-Asp-Leu-Ala-Ala-Phe-Leu-PyrS2-3Thi-BztA-Gln-NH2] | –
